Bridge positions count the residues as written; N and C are the ends. Peptide text beside a SMILES is read from it.
Legend:
[1] = tested on: ACA-6626; test: Competitive binding peptide ACA ELISA, cardiolipin/β2-GPI-coated plates; set-up: species or system human; details: peptide 1 mg/mL, affinity purified antibody
Method in brief: (§1)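 Absorbance at 550 nm gives the IC50, read where the half-maximal signal meets the peptide amount on the inhibition curve. Peptides at several concentrations compete with an optimized aPL antibody level on CL/β2-GPI wells.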

[2] = tested on: ACA-6638; test: as above; set-up: species or system human; details: peptide 1 mg/mL, affinity purified antibody
Method in brief: as §1

[3] = tested on: ACA-6641; test: as above; set-up: species or system human; details: peptide 1 mg/mL, affinity purified antibody
Method in brief: as §1

[4] = tested on: ACA-6644; test: as above; set-up: species or system human; details: peptide 1 mg/mL, affinity purified antibody
Method in brief: as §1

[5] = tested on: ACA-6701; test: as above; set-up: species or system human; details: peptide 1 mg/mL, affinity purified antibody
Method in brief: as §1

[6] = tested on: ACA-6903; test: as above; set-up: species or system human; details: peptide 1 mg/mL, affinity purified antibody
Method in brief: as §1

[7] = tested on: ACA-7004; test: as above; set-up: species or system human; details: peptide 1 mg/mL, affinity purified antibody
Method in brief: as §1

[8] = tested on: ACA-7005; test: as above; set-up: species or system human; details: peptide 1 mg/mL, affinity purified antibody
Method in brief: as §1

[9] = tested on: ACA antibodies; test: Competitive binding peptide ACA ELISA, cardiolipin/β2-GPI-coated plates, panel of ACA antibodies (average); set-up: species or system human; details: peptide 1 mg/mL, average over nine antibodies
Method: A variation of this assay uses microtitration plates coated with human β2-glycoprotein I/cardiolipin (β2-GPI/CL) instead of tetravalent peptide and tests the ability of monomeric peptides to block the binding of aPL antibody to the epitope(s) on β2-GPI/CL. In this assay, IgG-depleted human serum at an optimized concentration is used as a source of β2-GPI. The monomeric peptides at several concentrations are incubated with an optimized concentration of aPL antibody in a manner analogous to the assay which employs tetravalent peptide as a plate substrate. Following the incubation of aPL/peptide in (β2-GPI/CL) plates, antibody binding and the peptide concentration required for 50% inhibition is determined at half-maximal absorbance as in the tetravalent assay.
Peptide sequences for all five peptides immediately follow the table. All were tested using the competitive binding peptide ACA ELISA using CL/β2-GPI plates as described herein.
As noted in Section I above, one synthetic peptide, 6641/3G3 was tested against several high titer ACA antisera. This peptide appeared to be crossreactive with the vast majority of ACA antisera tested as illustrated in FIG. 14.
(B) Immulon I® 96-well, flat-bottom, polystyrene microtitration plates (Dynatech Laboratories, Inc., Chantilly, Va.) were coated with 30 μL/well of cardiolipin (CL, 50 μg; Sigma Chemical Co., St. Louis, Mo.) in ethanol. Two control wells received 30 μL ethanol only. After overnight evaporation at 4° C., each well was blocked with 200 μL of 5% (w/v) fish gelatin in PBS for 2 hours at RT.
The CL/β2-GPI microtitration plate was washed 5 times with TBS and 100 μL aliquots in duplicate from Eppendorf tubes #1, 2, 3, and 4 containing the antibody-peptide (or no peptide mixtures) were added to the wells. A volume of 100 μL from tube #4 was added to the duplicate control wells containing no cardiolipin. The microtitration plate was incubated for 1 hour at RT with agitation at 40 rpm in an orbital shaker (American Scientific, Rotator V), washed 5 times with TBS and then 100 μL of 1:1000 goat anti-human IgG alkaline phosphatase conjugate (Zymed, Cat No. 62-8422) in 0.5% (w/v) BSA-TBS was added. Following incubation for 1 hour at RT, the microtitration plate was again washed 5 times with TBS and the colorimetric enzyme detection developed by adding 100 μL of PMPP solution (7.8 g phenolphthalein monophosphate plus 69.5 g of 2-amino-2-methyl-1-propanol in 100 mL water stock solution diluted 1:26 with water). After 21 minutes, the reaction was stopped by adding 50 μL of 0.2 M Na2HPO4 (Mallinckrodt) to each well. Absorbance at 550 nm was read in a microplate reader (Bio-Tek Instruments, Model EL 311). The amount of peptide that inhibited ACA-6501 binding by 50%, the IC50, was calculated from the graph at the intersection of half-maximal absorbance with amount of peptide added.

[10] = target: ACA-6701; test: Competitive fluorescence polarization assay (cFP); assay type: binding, human
Method: The above described dbFP assay provides binding constants for FITC-labeled peptides and requires on the order of 0.5 mg of purified antibody. The cFP assay provides binding constants for peptides that lack the FITC group and it consumes less antibody, on the order of 10 μg. The cFP assay is modified from that reported in PanVera Applications Guide (1994) PanVera Corporation such that it consumes 50-fold less antibody. Briefly, antibody (ACA 6701) is mixed with trace FITC labeled peptide (CB2*-F) and enough time is allowed for equilibrium to be reached. This was 1 hour for ACA 6701 and CB2*-F. Increasing concentrations of the unlabeled peptide being tested (CB2* or 3B10) are then added to the tube. After each addition, sufficient time, approximately 15 minutes, is allowed for equilibrium to be reached and the mP value was read. […] This Δ(mP) value should be 20 or more mP units to insure reliable results.
As unlabeled (no FITC) peptide (I) is added to inhibit F from binding to R, Y decreases from its maximum value of PH′ to a plateau of PL which should agree with that in Equation 1. These titrations are shown in FIGS. 26 and 27 for displacement of CB2*-F from ACA-6701 by CB2* and 3B10, respectively. The equation describing this titration was derived and is: [formula]
where PL is the same as in Equation 1. […]

`CC(C)C[C@@H]1NC(=O)[C@H](CC(C)C)NC(=O)[C@H](CC(C)C)NC(=O)[C@@H](NC(=O)[C@@H]2CCCN2C(=O)CNC(=O)[C@H](C)N)CSSC[C@@H](C(=O)N2CCC[C@H]2C(=O)NCC(=O)O)NC(=O)[C@H](CCCNC(=N)N)NC(=O)[C@H](CC(=O)O)NC(=O)[C@@H]2CCCN2C(=O)[C@H](C)NC1=O` [3B10, AGPCLLLAPDRCPG] (H-AGPCLLLAPDRCPG-OH; disulfide 4-12) was tested, and the “Percent Inhibition of AffACA by Peptide Monomers, 6626” value [1] was 76%, the “Percent Inhibition of AffACA by Peptide Monomers, 6638” value [2] was 87% and the “Percent Inhibition of AffACA by Peptide Monomers, 6641” value [3] was 52%. The “Percent Inhibition of AffACA by Peptide Monomers, 6644” value [4] was 55%, the “Percent Inhibition of AffACA by Peptide Monomers, 6701” value [5] was 51% and the “Percent Inhibition of AffACA by Peptide Monomers, 6903” value [6] was 69%. For the same compound, the “Percent Inhibition of AffACA by Peptide Monomers, 7004” value [7] was 87%, the “Percent Inhibition of AffACA by Peptide Monomers, 7005” value [8] was 47% and the “Percent Inhibition of AffACA by Peptide Monomers, Ave.” value [9] was 65%. The Ki ([10]; cFP, displacement of CB2*-F from ACA-6701) was 313 nM and the “binding to ACA-6701 less than binding of CB2*” value ([10]; versus CB2*) was 9 fold.

Reference: patent US20040009904A1, “APL immunoreactive peptides, conjugates thereof and methods of treatment for aPL antibody-mediated pathologies” (priority 1995, published 2004)
